From US9018260B2, “Indanesulfamide derivatives” (Eisai R&D Management Co., Ltd., priority 2012, dated 2015)

Tests used:
[1] = tested on: corneal kindled male C57Bl/6 mice; test: Mouse corneal kindling model; assay type: in vivo; details: for ED50: Mus musculus, dosage where 50% of animals showed seizure severity score 2 or less; for Seizure severity score (Average): Racine's scale
Source text: Male C57Bl/6 mice were stimulated twice daily for 10 days. The electric-stimulations with current intensities of 4.0 mA and duration of 3 s (pulse frequency 50 Hz) were applied via corneally placed saline-soaked copper electrodes.
Seizure severity was ranked according to a modified scoring system of the Racine's scale (Clin. Neurophysiol. 1972:32:281-294): Score 1, mild facial clonus and eye blinking; 2, severe facial clonus, head nodding, chewing; 3, unilateral or alternating forelimb clonus; 4, bilateral forelimb clonus with rearing; 5, bilateral forelimb clonus with rearing and falling; 6, tonic fore- and/or hindlimb extension. The fully kindled animals with the severity score 4 or more were used for evaluation.
Test compounds were dissolved in the vehicle (0.45% methyl cellulose/4.5% cremophor/10% DMSO), then orally (p.o.) or intraperitoneally (i.p.) administered to mice. The vehicle was orally administered as controls.
Electric stimulation was applied at 1 hour after p.o. or 20 minutes after i.p administration. Stimulation parameters were the same as during the kindling process. After electric stimulation, seizure severity was recorded for 30 seconds according to the Racine's scale.
Four to ten animals were used for calculation of average seizure severity score at each dose.

Rota rod test [2] = assay type: in vivo, mouse; details: male, ddY, mouse, in vivo, po; dose at which fall off latency shorten by 50% of vehicle control value
Description: (§1) Rotarod apparatus (Rota-rod MK-660C, Muromachi-Kikai Co., Ltd.) was used for measurement. The motor was turned on and the rod rotation was continuously accelerated to a rate of 40 rpm over 180 sec.
(§2) Male ddY mice at an age of 5 weeks (Japan SLC) were used. On the experiment day, the mice were pretrained and only the animals able to remain on the rod for at least 60 s were selected for experiment.
(§3) Test compounds were dissolved in the vehicle (0.45% methyl cellulose/4.5% cremophor/10% dimethyl sulfoxide), then orally (p.o.) administered to mice. The vehicle was orally administered as controls. The effects of compounds were studied in groups of six to ten animals.
(§4) Latency for mice to fall off from the rod was measured. The toxic dose at which fall off latency shorten by 50% of vehicle control value (TD50) was calculated.
(§5) Therapeutic index were calculated by dividing the respective TD50 value in rota rod test by the ED50 value determined in the corneal kindling model.

male ddY mice [3] = test: Rota rod test; assay type: in vivo, mouse; details: route p.o.; TD50 in rota rod test divided by ED50 in corneal kindling model
Description: as §1, §2, §3, §4, §5

[4] = tested on: amygdala kindled male Wistar Kyoto rats; test: Rat amygdala kindling model; assay type: in vivo; details: oral, 60 minutes after administration; FIGS. 1 to 3
Description: Male Wistar Kyoto rats (Charles River Japan) were used for the experiment. For implantation of kindling electrodes, rats were anesthetized with pentobarbital (65 mg/kg i.p.) and a tripolar electrode was implanted into the right hemisphere aimed at the basolateral amygdala using the coordinates derived from the atlas of Paxinos and Watson. Electrical stimulation of the amygdala was initiated following a recovery period of one week after surgery. […]
The threshold for induction of amygdala after discharges (ADT), i.e., epileptiform spikes on electroencephalogram (EEG), was measured for anti-seizure potency of compounds. In fully kindled rats, the ADT was determined by administering a series of stimulations beginning at […] and increasing in steps of about 25% of the previous current. […]
In the afternoon, test compounds were dissolved in the vehicle (a 1:1:1 mixture of polyethylene glycol 200, distilled water and DMSO), then orally administered to rats. […] The ADT was determined again 60 minutes after administration of drugs. The % of pre-value (morning results) was determined for each rat. Results were expressed as mean±SEM and analyzed by Dunnett's multiple comparisons test. […]

Rota rod test [5] = assay type: in vivo, mouse; details: male, ddY, mouse, in vivo, intraperitoneal; route i.p; dose at which fall off latency shorten by 50% of vehicle control value
male ddY mice [6] = test: Rota rod test; assay type: in vivo, mouse; details: route i.p; TD50 in rota rod test divided by ED50 in corneal kindling model
[7] = dose 10 mg/kg, p.o., stimulation 1 hour after administration
[8] = dose 25 mg/kg, p.o., stimulation 1 hour after administration
[9] = dose 50 mg/kg, p.o., stimulation 1 hour after administration
[10] = dose 10 mg/kg, i.p., stimulation 20 minutes after administration
[11] = dose 25 mg/kg, i.p., stimulation 20 minutes after administration

Structure (SMILES)	ED50 ([1]; po) [mg/kg]	Seizure severity score (Average) [1, 7]	Seizure severity score (Average) [1, 8]	TD50 (Rota rod test [2]) [mg/kg]	Therapeutic index (male ddY mice [3])	Seizure severity score (Average) [1, 9]	after-discharge threshold (ADT), % of pre-value [4]	ED50 ([1]; ip, route i.p) [mg/kg]	Seizure severity score (Average) [1, 10]	Seizure severity score (Average) [1, 11]	TD50 (Rota rod test [5]) [mg/kg]	Therapeutic index (male ddY mice [6])
NS(=O)(=O)NC1c2c(ccc(F)c2F)CC1(F)F (single isomer, unassigned; (-)) [Example 5, (−)-N-(2,2,6,7-tetrafluoro-2,3-dihydro-1H-inden-1-yl)sulfamide]	5.7	2	0	404	70.9							
NS(=O)(=O)NC1c2c(Cl)cc(F)cc2CC1(F)F (single isomer, unassigned; (-)) [Example 6, (−)-N-(7-chloro-2,2,5-trifluoro-2,3-dihydro-1H-inden-1-yl)sulfamide]	10.2	1	0	307	30.1	0.25	dose-dependent elevation of after-discharge threshold					
NS(=O)(=O)NC1c2c(Cl)cccc2CC1(F)F (single isomer, unassigned; (-)) [Example 8, (−)-N-(7-chloro-2,2-difluoro-2,3-dihydro-1H-inden-1-yl)sulfamide]								10.6	3	0	119	11.2
NS(=O)(=O)NC1CCc2c(F)cc(F)c(F)c21 (single isomer, unassigned; (-)) [Example 29, (−)-N-(4,6,7-trifluoro-2,3-dihydro-1H-inden-1-yl)sulfamide]	15.8	3.5	0.83	157	9.93	0						
NS(=O)(=O)N[C@H]1c2c(F)cc(F)cc2CC1(F)F [Example 1, N-[(1S)-2,2,5,7-tetrafluoro-2,3-dihydro-1H-inden-1-yl]sulfamide]	7.9	2	0	390	49.4	0						
NS(=O)(=O)N[C@H]1c2c(F)ccc(F)c2CC1(F)F [Example 2, N-[(1S)-2,2,4,7-tetrafluoro-2,3-dihydro-1H-inden-1-yl]sulfamide]	15.4	4	0	> 200	>13.0	0						
Cc1cccc2c1[C@H](NS(N)(=O)=O)C(F)(F)C2 [Example 11, N-[(1S)-2,2-Difluoro-7-methyl-2,3-dihydro-1H-inden-1-yl]sulfamide]	5	0.5	0	132	26.4		dose-dependent elevation of after-discharge threshold					
Cc1cc(F)cc2c1[C@H](NS(N)(=O)=O)C(F)(F)C2 [Example 12, N-[(1S)-2,2,5-Trifluoro-7-methyl-2,3-dihydro-1H-inden-1-yl]sulfamide]	5.6	0	0	143	25.5							
NS(=O)(=O)N[C@H]1CCc2c(F)ccc(F)c21 [Example 19, N-[(1S)-4,7-difluoro-2,3-dihydro-1H-inden-1-yl]sulfamide]	12.4	2	0	235	19.0							
NS(=O)(=O)N[C@H]1CCc2cc(F)cc(Cl)c21 [Example 21, N-[(1S)-7-chloro-5-fluoro-2,3-dihydro-1H-inden-1-yl]sulfamide]	10.6			234	22.1				4.25	2		
NS(=O)(=O)NC1CCc2ccccc21 (centres unmarked) [Reference compound, reference compound]	40	4.67	3.17	211	5.27	1.33						
